This is an account of results in patent US8329705B2, “Substituted triazolo-pyrazine compounds” (ArQule, Inc., priority 2009, dated 2012).

The target in the experiment is T1, FGFR2 (N549H) (Homo sapiens, UniProt P21802, N549H).
T1 construct: purchased Millipore 14-742
T1 sequence (P21802 22-821 N549H): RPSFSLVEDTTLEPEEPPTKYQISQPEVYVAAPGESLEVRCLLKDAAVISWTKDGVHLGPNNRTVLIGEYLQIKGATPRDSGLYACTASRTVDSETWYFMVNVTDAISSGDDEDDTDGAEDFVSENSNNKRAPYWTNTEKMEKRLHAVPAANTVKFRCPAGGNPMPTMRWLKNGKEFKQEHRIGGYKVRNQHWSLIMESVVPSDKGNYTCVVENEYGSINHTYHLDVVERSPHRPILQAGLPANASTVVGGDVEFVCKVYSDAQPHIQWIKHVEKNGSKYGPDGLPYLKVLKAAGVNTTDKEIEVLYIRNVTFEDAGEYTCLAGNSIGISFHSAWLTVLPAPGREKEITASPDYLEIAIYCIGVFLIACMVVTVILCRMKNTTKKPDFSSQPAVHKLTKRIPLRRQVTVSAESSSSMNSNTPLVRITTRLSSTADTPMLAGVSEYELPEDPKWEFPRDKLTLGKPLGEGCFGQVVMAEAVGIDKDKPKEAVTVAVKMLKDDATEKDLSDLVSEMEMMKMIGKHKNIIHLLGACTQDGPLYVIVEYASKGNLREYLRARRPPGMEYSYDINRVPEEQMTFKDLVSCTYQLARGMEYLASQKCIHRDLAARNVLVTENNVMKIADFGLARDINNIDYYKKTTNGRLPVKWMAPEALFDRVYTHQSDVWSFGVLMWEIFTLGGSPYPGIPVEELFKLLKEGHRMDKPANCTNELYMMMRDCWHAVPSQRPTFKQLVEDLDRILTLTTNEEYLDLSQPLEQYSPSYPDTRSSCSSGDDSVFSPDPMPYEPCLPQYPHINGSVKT
In words: FGFR2 kinase activity assay (fluorescent ELISA). The experiment is classed as biochemical. To be noted: 30 μM compound. The protocol:
A fluorescent ELISA assay was developed to identify and characterize inhibitors of FGFR2 kinase. This heterogeneous assay utilized a biotinylated peptide with a tyrosine motif as a substrate and an anti-phospho-tyrosine antibody to measure phosphorylation of the substrate. The reaction was initiated by adding a test compound, 37 uM Pyk2 substrate (Midwest Biotech, cat. #MBT2383), 12.5 uM ATP (Roche, cat. #11 140 965 001), and 0.5 uM FGFR2 enzyme (Millipore, cat. #14-742) sequentially to a non-binding polypropylene V-well plate. All reagents were in assay buffer consisting of: 50 mM Tris-HCL, 0.02 mg/mL BSA, 10 mM MgCl2, 0.1 mM Na3VO4, 1 mM EGTA, […], 0.01% NP-40, 2 mM DTT, 10% Glycerol. The reaction was incubated for 60 minutes. As the reaction proceeded, FGFR2 phosphorylated tyrosines in the peptide. The reaction mixture was then moved to a blocked streptavidin coated Nunc Maxisorb plate (coated with 100 ng streptavidin from Pierce (cat #15-124) per well) allowing for the capture of the biotinylated peptide. Peptide was captured for 30 minutes at room temperature, the phosphorylation of peptide continues during this phase. The reaction was stopped by washing the Streptavidin plate 6 times with TBST. Phosphorylated peptide was detected by adding anti-phospho tyrosine antibody (purchased from Cell Signaling, cat. #9411, diluted 1:3000), unbound antibody was removed by washing 6 times with TBST. Secondary detection was performed using Alkaline Phosphatase tagged goat anti-mouse antibody (purchased from Pierce, cat. #31320, diluted 1:4000) for one hour. Unbound secondary antibody was removed by washing 6 times with TBST.
The fluorescent readout was initiated by the addition of Promega Attophos substrate (purchased from Promega; Kit catalog number: S1000, dilution=6 mg/10 mL), which when dephosphorylated by Alkaline phosphatase emitted a fluorescent signal of […] when excited by a signal […]. This reading was done on the Perkin Elmer Envision system. […] The signal was directly proportional to the activity of FGFR2 and compound inhibition of FGFR2 was monitored by a decrease in signal.
Background: An ELISA detects its analyte on a solid surface through an enzyme-linked reagent.
The term inhibition denotes the change of the read-out against control, counted positive when it falls. Consider `CC(C)OC(=O)Nc1nnc2c(NCc3ccc(C(F)(F)F)cc3)nccn12` [Compound 17, isopropyl (8-{[4-(trifluoromethyl)benzyl]amino}[1,2,4]triazolo[4,3-a]pyrazin-3-yl)carbamate], for which the inhibition at 30 µM came to 68.8%.

Consider `Cc1cccc(Nc2nccn3c(N)nnc23)c1` [Compound 118, N^8-(3-methylphenyl)[1,2,4]triazolo[4,3-a]pyrazine-3,8-diamine], for which the inhibition at 30 µM is 50.4%.

Take `Nc1nnc2c(NCc3ccc(Br)cc3)nccn12` [Compound 140, N^8-(4-bromobenzyl)[1,2,4]triazolo[4,3-a]pyrazine-3,8-diamine]: the inhibition at 30 µM amounted to 52.9%.

`CC(C)OC(=O)Nc1nnc2c(NCc3cccc(Cl)c3)nccn12` [Compound 24, isopropyl {8-[(3-chlorobenzyl)amino][1,2,4]triazolo[4,3-a]pyrazin-3-yl}carbamate]: the inhibition at 30 µM is 65.3%.

As to `COc1ccc(OC)c(Nc2nccn3c(NC(=O)OC(C)C)nnc23)c1` [Compound 46, isopropyl {8-[(2,5-dimethoxyphenyl)amino][1,2,4]triazolo[4,3-a]pyrazin-3-yl}carbamate], the inhibition at 30 µM amounted to 84.6%.

In the case of `CC(C)OC(=O)Nc1nnc2c(NCc3ccccc3Br)nccn12` [Compound 80, isopropyl {8-[(2-bromobenzyl)amino][1,2,4]triazolo[4,3-a]pyrazin-3-yl}carbamate], the inhibition at 30 µM was found to be 51%.

Consider `CC(C)OC(=O)Nc1nnc2c(NCc3ccccc3F)nccn12` [Compound 84, isopropyl {8-[(2-fluorobenzyl)amino][1,2,4]triazolo[4,3-a]pyrazin-3-yl}carbamate], for which the inhibition at 30 µM amounted to 84%.

In the case of `COc1ccc(C)cc1Nc1nccn2c(NC(=O)OC(C)C)nnc12` [Compound 23, isopropyl {8-[(2-methoxy-5-methylphenyl)amino][1,2,4]triazolo[4,3-a]pyrazin-3-yl}carbamate], the inhibition at 30 µM is 50.9%.

On to `Cc1ccc(N(C)c2nccn3c(N)nnc23)cc1` [Compound 107, N^8-methyl-N^8-(4-methylphenyl)[1,2,4]triazolo[4,3-a]pyrazine-3,8-diamine], for which the inhibition at 30 µM came out at 86.1%.

For the compound `CC(C)OC(=O)Nc1nnc2c(N(C)Cc3ccccc3)nccn12` [Compound 30, isopropyl {8-[benzyl(methyl)amino][1,2,4]triazolo[4,3-a]pyrazin-3-yl}carbamate], the inhibition at 30 µM was determined as 56.3%.

In the case of `CCc1ccc(CNc2nccn3c(N)nnc23)cc1` [Compound 139, N^8-(4-ethylbenzyl)[1,2,4]triazolo[4,3-a]pyrazine-3,8-diamine], the inhibition at 30 µM came out at 96.3%.

With `Cc1ccc(N(C)c2nccn3c(NC(=O)OC(C)C)nnc23)cc1` [Compound 69, isopropyl {8-[methyl(4-methylphenyl)amino][1,2,4]triazolo[4,3-a]pyrazin-3-yl}carbamate], the inhibition at 30 µM was determined as 52.8%.

On to `CC(C)OC(=O)Nc1nnc2c(N(C)c3ccc(Cl)cc3)nccn12` [Compound 87, isopropyl {8-[(4-chlorophenyl)(methyl)amino][1,2,4]triazolo[4,3-a]pyrazin-3-yl}carbamate], for which the inhibition at 30 µM came out at 57.7%.

Regarding `Nc1nnc2c(Nc3cccc(Br)c3)nccn12` [Compound 142, N^8-(3-bromophenyl)[1,2,4]triazolo[4,3-a]pyrazine-3,8-diamine], the inhibition at 30 µM was found to be 59.9%.

In the case of `COc1ccc(N(C)c2nccn3c(N)nnc23)cc1` [Compound 152, N^8-(4-methoxyphenyl)-N^8-methyl[1,2,4]triazolo[4,3-a]pyrazine-3,8-diamine], the inhibition at 30 µM stood at 109%.

For the compound `CC(C)OC(=O)Nc1nnc2c(Nc3ccc(C(C)(C)C)cc3)nccn12` [Compound 50, isopropyl {8-[(4-tert-butylphenyl)amino][1,2,4]triazolo[4,3-a]pyrazin-3-yl}carbamate], the inhibition at 30 µM was 63.6%.

With `Cc1cccc(CNc2nccn3c(N)nnc23)c1C` [Compound 131, N^8-(2,3-dimethylbenzyl)[1,2,4]triazolo[4,3-a]pyrazine-3,8-diamine], the inhibition at 30 µM worked out at 65.7%.
